Experimental data from PubChem BioAssay (NCI).
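A five-concentration, 48-hour dose response in 96-well plates underlies each endpoint, interpolated linearly between surrounding concentrations. GI50: concentration for 50% inhibition of growth. At the TGI there is no net growth.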

What was measured:
Assay in all cases: NCI anticancer screen, dose series, 48 h
NCI-H226 lung = system: NCI-H226 lung
LXFL 529 NSCLC = system: LXFL 529 NSCLC
NCI-H522 lung = system: NCI-H522 lung
SR leukemia = system: SR leukemia
SK-OV-3 ovarian = system: SK-OV-3 ovarian
HL-60(TB) leukemia = system: HL-60(TB) leukemia
HOP-92 NSCLC = system: HOP-92 NSCLC
HOP-62 NSCLC = system: HOP-62 NSCLC
M19-MEL melanoma = system: M19-MEL melanoma
SNB-78 CNS = system: SNB-78 CNS
CAKI-1 renal = system: CAKI-1 renal
M14 melanoma = system: M14 melanoma
LOX IMVI melanoma = system: LOX IMVI melanoma
SF-295 CNS = system: SF-295 CNS
HCT-15 colon = system: HCT-15 colon
DMS 114 small cell lung = system: DMS 114 small cell lung
786-0 renal = system: 786-0 renal
SW-620 colon = system: SW-620 colon
MOLT-4 leukemia = system: MOLT-4 leukemia
A549 NSCLC = system: A549 NSCLC
UACC-62 melanoma = system: UACC-62 melanoma
NCI-H460 lung = system: NCI-H460 lung
OVCAR-5 ovarian = system: OVCAR-5 ovarian
ACHN renal = system: ACHN renal
OVCAR-4 ovarian = system: OVCAR-4 ovarian
SK-MEL-5 melanoma = system: SK-MEL-5 melanoma
KM12 colon = system: KM12 colon
K-562 leukemia = system: K-562 leukemia
IGROV1 ovarian = system: IGROV1 ovarian
OVCAR-8 ovarian = system: OVCAR-8 ovarian
EKVX NSCLC = system: EKVX NSCLC
SNB-75 CNS = system: SNB-75 CNS
SF-268 CNS = system: SF-268 CNS
SN12C renal = system: SN12C renal
RPMI-8226 leukemia = system: RPMI-8226 leukemia
U251 CNS = system: U251 CNS
HT29 colon = system: HT29 colon
CCRF-CEM leukemia = system: CCRF-CEM leukemia
DLD-1 colon = system: DLD-1 colon
SF-539 CNS = system: SF-539 CNS
NCI-H23 lung = system: NCI-H23 lung
OVCAR-3 ovarian = system: OVCAR-3 ovarian
COLO 205 colon = system: COLO 205 colon
HCT-116 colon = system: HCT-116 colon
MDA-MB-435 = system: MDA-MB-435
NCI/ADR-RES ovarian = system: NCI/ADR-RES ovarian
UO-31 renal = system: UO-31 renal
MDA-N = system: MDA-N
T-47D breast = system: T-47D breast
MALME-3M melanoma = system: MALME-3M melanoma
SK-MEL-2 melanoma = system: SK-MEL-2 melanoma
MDA-MB-231 breast = system: MDA-MB-231 breast
MCF7 breast = system: MCF7 breast
SK-MEL-28 melanoma = system: SK-MEL-28 melanoma
DU-145 prostate = system: DU-145 prostate
PC-3 prostate = system: PC-3 prostate
SNB-19 CNS = system: SNB-19 CNS
HCC-2998 colon = system: HCC-2998 colon
DMS 273 small cell lung = system: DMS 273 small cell lung
A498 renal = system: A498 renal
UACC-257 melanoma = system: UACC-257 melanoma
KM20L2 colon = system: KM20L2 colon
TK-10 renal = system: TK-10 renal

In the case of `CC(C)(c1cn(Cc2ccccc2)c2ccccc12)c1cn(Cc2ccccc2)c2ccccc12`, the TGI (NCI-H226 lung) is reported as greater than 100 µM, the TGI (LXFL 529 NSCLC) is reported as greater than 100 µM and the TGI (NCI-H522 lung) is reported as greater than 100 µM. The TGI (SR leukemia) was greater than 100 µM, the TGI (SK-OV-3 ovarian) was greater than 100 µM and the TGI (HL-60(TB) leukemia) was greater than 100 µM. For the same molecule, the TGI (HOP-92 NSCLC) was greater than 100 µM, the TGI (HOP-62 NSCLC) was greater than 100 µM and the TGI (M19-MEL melanoma) was greater than 100 µM. For the same molecule, the TGI (SNB-78 CNS) was greater than 100 µM, the TGI (CAKI-1 renal) was greater than 100 µM and the TGI (M14 melanoma) was greater than 100 µM. For the same molecule, the TGI (LOX IMVI melanoma) was greater than 100 µM, the TGI (SF-295 CNS) was greater than 100 µM and the TGI (HCT-15 colon) was greater than 100 µM. For the same molecule, the TGI (DMS 114 small cell lung) was greater than 100 µM, the TGI (786-0 renal) was greater than 100 µM and the TGI (SW-620 colon) was greater than 100 µM. The TGI (MOLT-4 leukemia) was greater than 100 µM, the TGI (A549 NSCLC) was greater than 100 µM and the TGI (UACC-62 melanoma) was greater than 100 µM. It also gave a TGI (NCI-H460 lung) greater than 100 µM, a TGI (OVCAR-5 ovarian) greater than 100 µM and a TGI (ACHN renal) greater than 100 µM. For the same molecule, the TGI (OVCAR-4 ovarian) was greater than 100 µM, the TGI (SK-MEL-5 melanoma) was greater than 100 µM and the TGI (KM12 colon) was greater than 100 µM. For the same molecule, the TGI (K-562 leukemia) was greater than 100 µM, the TGI (IGROV1 ovarian) was greater than 100 µM and the TGI (OVCAR-8 ovarian) was greater than 100 µM. For the same molecule, the TGI (EKVX NSCLC) was greater than 100 µM, the TGI (SNB-75 CNS) was 99.6 µM and the TGI (SF-268 CNS) was greater than 100 µM. The TGI (SN12C renal) was 5.07 µM, the TGI (RPMI-8226 leukemia) was greater than 100 µM and the TGI (U251 CNS) was greater than 100 µM. It also gave a TGI (HT29 colon) greater than 100 µM, a TGI (CCRF-CEM leukemia) greater than 100 µM and a TGI (DLD-1 colon) greater than 100 µM. For the same molecule, the TGI (SF-539 CNS) was greater than 100 µM, the TGI (NCI-H23 lung) was greater than 100 µM and the TGI (OVCAR-3 ovarian) was greater than 100 µM. The TGI (COLO 205 colon) was greater than 100 µM and the TGI (HCT-116 colon) was greater than 100 µM.
For `CCSC(=O)N1c2ccc(OC)cc2C=CC1C#N` (stereo not drawn), the GI50 (MDA-MB-435) was 0.369 nM, the TGI (MDA-MB-435) was 5.53 nM and the TGI (HL-60(TB) leukemia) was 0.00522 µM. For the same molecule, the TGI (HOP-62 NSCLC) was 0.0467 µM, the GI50 (NCI/ADR-RES ovarian) was 2.54 nM and the TGI (UO-31 renal) was greater than 1000 µM. For the same molecule, the GI50 (MDA-N) was 0.3 nM, the TGI (MDA-N) was 1.38 nM and the TGI (CAKI-1 renal) was 737 µM. The TGI (M14 melanoma) was greater than 1000 µM, the TGI (T-47D breast) was 734 µM and the TGI (MALME-3M melanoma) was greater than 1000 µM. The GI50 (HCT-15 colon) was 1.68 nM, the TGI (DMS 114 small cell lung) was 1.02 µM and the TGI (786-0 renal) was 121 µM. It also gave a TGI (SW-620 colon) of 199 µM, a TGI (MOLT-4 leukemia) greater than 1000 µM and a TGI (A549 NSCLC) greater than 1000 µM. The TGI (SK-MEL-2 melanoma) was 7.43 µM, the GI50 (OVCAR-5 ovarian) was 596 nM and the TGI (OVCAR-5 ovarian) was greater than 1000 µM. For the same molecule, the GI50 (MDA-MB-231 breast) was 529 nM, the TGI (ACHN renal) was greater than 1000 µM and the TGI (OVCAR-4 ovarian) was greater than 1000 µM. The GI50 (MCF7 breast) was 0.805 nM, the TGI (MCF7 breast) was greater than 1 mM and the TGI (SK-MEL-5 melanoma) was 0.224 µM. It also gave a TGI (SK-MEL-28 melanoma) greater than 1000 µM, a TGI (K-562 leukemia) greater than 1000 µM and a TGI (IGROV1 ovarian) greater than 1000 µM. It also gave a TGI (DU-145 prostate) of 10.5 nM, a TGI (EKVX NSCLC) greater than 1000 µM and a GI50 (SNB-75 CNS) of 231 nM. For the same molecule, the TGI (SNB-75 CNS) was greater than 1000 µM, the TGI (RPMI-8226 leukemia) was 689 µM and the TGI (CCRF-CEM leukemia) was greater than 1000 µM. The TGI (SF-539 CNS) was 0.00582 µM, the GI50 (PC-3 prostate) was 214 nM and the TGI (PC-3 prostate) was greater than 1 mM. The GI50 (SNB-19 CNS) was 6.08 µM, the TGI (SNB-19 CNS) was greater than 1000 µM and the TGI (OVCAR-3 ovarian) was 0.0062 µM. For the same molecule, the TGI (HCT-116 colon) was 0.0382 µM.
For `CC12CCC(=O)N1c1cnccc1N2` (stereo not drawn), the TGI (LXFL 529 NSCLC) was greater than 100 µM, the TGI (NCI-H522 lung) was greater than 100 µM and the TGI (SR leukemia) was greater than 100 µM. It also gave a TGI (HCC-2998 colon) greater than 100 µM, a TGI (SK-OV-3 ovarian) greater than 100 µM and a TGI (HL-60(TB) leukemia) greater than 100 µM. For the same molecule, the TGI (HOP-92 NSCLC) was greater than 100 µM, the TGI (HOP-62 NSCLC) was greater than 100 µM and the TGI (DMS 273 small cell lung) was greater than 100 µM. It also gave a TGI (UO-31 renal) greater than 100 µM, a TGI (SNB-78 CNS) greater than 100 µM and a TGI (CAKI-1 renal) greater than 100 µM. For the same molecule, the TGI (M14 melanoma) was greater than 100 µM, the TGI (MALME-3M melanoma) was greater than 100 µM and the TGI (SF-295 CNS) was greater than 100 µM. It also gave a TGI (HCT-15 colon) greater than 100 µM, a TGI (DMS 114 small cell lung) greater than 100 µM and a TGI (SW-620 colon) greater than 100 µM. For the same molecule, the TGI (MOLT-4 leukemia) was greater than 100 µM, the TGI (A549 NSCLC) was greater than 100 µM and the TGI (SK-MEL-2 melanoma) was greater than 100 µM. The TGI (A498 renal) was greater than 100 µM, the TGI (UACC-62 melanoma) was greater than 100 µM and the TGI (NCI-H460 lung) was greater than 100 µM. It also gave a TGI (OVCAR-5 ovarian) greater than 100 µM, a TGI (ACHN renal) greater than 100 µM and a TGI (OVCAR-4 ovarian) greater than 100 µM. It also gave a TGI (SK-MEL-5 melanoma) greater than 100 µM, a TGI (SK-MEL-28 melanoma) greater than 100 µM and a TGI (KM12 colon) greater than 100 µM. It also gave a TGI (K-562 leukemia) greater than 100 µM, a TGI (IGROV1 ovarian) greater than 100 µM and a TGI (OVCAR-8 ovarian) greater than 100 µM. For the same molecule, the TGI (EKVX NSCLC) was greater than 100 µM, the TGI (UACC-257 melanoma) was greater than 100 µM and the TGI (KM20L2 colon) was greater than 100 µM. For the same molecule, the TGI (SNB-75 CNS) was greater than 100 µM, the TGI (SF-268 CNS) was greater than 100 µM and the TGI (SN12C renal) was greater than 100 µM. It also gave a TGI (RPMI-8226 leukemia) greater than 100 µM, a TGI (U251 CNS) greater than 100 µM and a TGI (TK-10 renal) greater than 100 µM. For the same molecule, the TGI (HT29 colon) was greater than 100 µM, the TGI (CCRF-CEM leukemia) was greater than 100 µM and the TGI (DLD-1 colon) was greater than 100 µM. For the same molecule, the TGI (SF-539 CNS) was greater than 100 µM, the TGI (NCI-H23 lung) was greater than 100 µM and the TGI (SNB-19 CNS) was greater than 100 µM. The TGI (OVCAR-3 ovarian) was greater than 100 µM, the TGI (COLO 205 colon) was greater than 100 µM and the TGI (HCT-116 colon) was greater than 100 µM.
